Drawing on patent US5624937A, “Chemical compounds as inhibitors of amyloid beta protein production” (Eli Lilly and Company, priority 1995, dated 1997), this text covers IC50 for 22 molecules.

pIC50: −log10 of the molar value. Bounds are passed on as bounds.

The test system of the experiment is Aβ production (APP-751 Swedish mutation transfected cells 293 751 SWE and CHO 751 SWE). The experiment is described as follows: Aβ production inhibition activity in cells (Aβ ELISA of conditioned media, normalized for MTT cytotoxicity). It counts as cell-based. As to conditions: 2 h pretreatment + 2 h, normalized to MTT, mean of at least six replicate assays, cell line not stated, read-out: IC50 (concentration of test compound required to inhibit Aβ production by 50%). On the procedure: Two cell lines (human kidney cell line 293 and Chinese hamster ovary cell line CHO) were stably transfected with the gene for APP-751 containing the double mutation Lys651 -Met652 to Asn651 -Leu652 (APP-751 numbering) commonly called the Swedish mutation using the method described in Citron et al., (1992) Nature 360: 672-674. The transfected cell lines were designated as 293 751 SWE and CHO 751 SWE, and were plated in Corning 96 well plates at 2.5×10^4 or 1×10^4 cells per well respectively in Dulbecco's minimal essential media plus 10% fetal bovine serum. Following overnight incubation at 37° C. in an incubator equilibrated with 10% carbon dioxide (CO2), the media were removed and replaced with 200 μL per well of media containing a test compound. After a two hour pretreatment period, the media were again removed and replaced with fresh media containing the test compound and the cells were incubated for an additional two hours.
Test compound stocks were prepared in DMSO such that at the final concentration used in the treatment, the concentration of DMSO did no exceed 0.5%. After treatment, plates were centrifuged in a Beckman GPR at 1200 rpm for five minutes at room temperature to pellet cellular debris from the conditioned media. From each well, 100μL of conditioned media were transferred into an ELISA plate precoated with antibody 266 against βAP-13-28 (Seubert et al , supra.) and stored at 4° C. overnight. An ELISA assay employing labeled antibody 6C6 (against βAP-1-16) was run the next day to measure the amount of Aβ produced.
Cytotoxic effects of the test compounds were measured by a modification of the method of Hansen et al., (1989) J. Immun. Meth. 119: 203-210. To the cells remaining in the tissue culture plate, was added 25 μL of a 3,(4,5-dimethylthiazol-2-yl)2,5-diphenyltetrazolium bromide (MTT) stock solution (5 mg/mL) to a final concentration of 1 mg/mL. Cells were incubated at 37° C. for one hour, and cellular activity was stopped by the addition of an equal volume of MTT lysis buffer (20% w/v sodium dodecylsulfate in 50% DMF, pH 4.7). Complete extraction was achieved by overnight shaking at room temperature. The difference in the OD562 nm and the OD650 nm was measured in a Molecular Devices UVmax microplate reader as an indicator of the cellular viability.
The results of the Aβ ELISA were fit to a standard curve and expressed as ng/mL Aβ peptide. In order to normalize for cytotoxicity, these Aβ results were divided by the MTT results and expressed as a percentage of the results from a drug-free control.
The test compounds were assayed for Aβ production inhibition activity in cells at 10 μg/mL using the test. The results presented in Table 1 are the mean and standard deviation of at least six replicate assays. IC50 means the concentration of test compound in micromoles/liter required to inhibit Aβ production by 50%.

For `FC(F)(F)c1cc(NC(=S)Nc2ccc(Sc3cccc4ccccc34)cc2)ccc1Cl` [Example 9], the pIC50 is 5.31.

For the molecule `FC(F)(F)c1cc(NC(=S)Nc2ccc(Sc3nc4cc(Cl)ccc4s3)cc2)ccc1Cl` [Example 13, 1-[4-(5-Chloro-2-benzothiazolylthio)phenyl]-3-(4-chloro-3-trifluoromethylphenyl)thiourea], the pIC50 was 5.77.

For `FC(F)(F)c1cc(NC(=S)Nc2ccc(Sc3ccnc4ccccc34)cc2)ccc1Cl` [Example 6, 1-[4-(4-Quinolylthio)phenyl]-3-(4-chloro-3-trifluoromethylphenyl)thiourea], the pIC50 was 5.33.

With `O=C(Nc1ccc(Sc2ccc3ccccc3n2)cc1)Nc1ccc(Cl)c(C(F)(F)F)c1` [Example 18, 1-[4-(2-Quinolylthio)phenyl]-3-(4-chloro-3-trifluoromethylphenyl]urea], the pIC50 was under 4.70. As for `FC(F)(F)c1cc(NC(=S)Nc2ccc(Sc3ccc4ccccc4c3)cc2)ccc1Cl` [Example 8, 1-[4-(2-Naphthylthio)phenyl]-3-(4-chloro-3-trifluoromethylphenyl)thiourea], the figure is 5.59; as for `FC(F)(F)c1ccc2c(Sc3ccc(NC(=S)Nc4ccc(Cl)c(C(F)(F)F)c4)cc3)ccnc2c1` [Example 7, 1-[4-(7-Trifluoromethyl-4-quinolylthio)phenyl]-3-(4-chloro-3-trifluoromethylphenyl)thiourea], 5.35; as for `O=[N+]([O-])c1c(Sc2ccc(NC(=S)Nc3ccc(Cl)c(C(F)(F)F)c3)cc2)ccc2ncccc12` [Example 22], 5.37. For the molecule `FC(F)(F)c1cc(NC(=S)Nc2ccc(Sc3ccc4cc(Cl)ccc4n3)cc2)ccc1Cl` [Example 3, 1-[4-(6-Chloro-2-quinolylthio)phenyl]-3-(4-chloro-3-trifluoromethylphenyl)thiourea], the pIC50 is 5.57.

Take `FC(F)(F)c1cc(NC(=S)Nc2ccc(Sc3ccc4ccccc4n3)cc2)ccc1Cl` [Example 1, 1-[4-(2-quinolyl)thiophenyl]-3-(4-chloro-3-trifluoromethyphenyl)thiourea]: the pIC50 was 5.43. As for `FC(F)(F)c1cc(NC(=S)Nc2ccc(Sc3ccc(-c4ccccc4)nn3)cc2)ccc1Cl` [Example 20], the figure is 5.36. As for `CCOC(=O)c1cc(Sc2ccc(NC(=S)Nc3ccc(Cl)c(C(F)(F)F)c3)cc2)nc2ccccc12` [Example 2, 1-[4-(4-ethoxycarbonyl-2-quinolylthio)phenyl]-3-(4-chloro-3-trifluoromethylphenyl)thiourea], the pIC50 is 5.51. In the case of `FC(F)(F)c1cc(NC(=S)Nc2ccc(Sc3nc4ccccc4o3)cc2)ccc1Cl` [Example 11, 1-[4-(2-Benzoxazolylthio)phenyl]-3-(4-chloro-3-trifluoromethylphenyl)thiourea] it was 4.90; in that of `FC(F)(F)c1cc(NC(=S)Nc2ccc(Oc3ccc4ccccc4n3)cc2)ccc1Cl` [Example 17, 1-[4-(2-Quinolyloxy)phenyl]-3-(4-chloro-3-trifluoromethylphenyl)thiourea], 5.01; in that of `O=S(=O)(c1ccc(NC(=S)Nc2ccc(Cl)c(C(F)(F)F)c2)cc1)c1ccc2ccccc2n1` [Example 15, 1-[4-(2-Quinolylsulfonyl)phenyl]-3-(4-chloro-3-trifluoromethylphenyl)thiourea], 5.43. As for `[O-][S+](c1ccc(NC(=S)Nc2ccc(Cl)c(C(F)(F)F)c2)cc1)c1ccc2ccccc2n1` (stereo not shown) [Example 14, 1-[4-(2-Quinolylsulfinyl)phenyl]-3-(4-chloro-3-trifluoromethylphenyl)thiourea], the figure is 4.92; as for `COc1ccc2nc(Sc3ccc(NC(=S)Nc4ccc(Cl)c(C(F)(F)F)c4)cc3)ccc2c1` [Example 5, 1-[4-(6-Methoxy-2-quinolylthio)phenyl]-3-(4-chloro-3-trifluoromethylphenyl)thiourea], 5.36. With `S=C(Nc1ccc(Sc2ccc3ccccc3n2)cc1)Nc1ccc(Cl)c(Cl)c1` [Example 19, 1-[4-(2-Quinolylthio)phenyl]-3-(3,4-dichlorophenyl)thiourea], the pIC50 is 4.86. As for `FC(F)(F)c1cc(NC(=S)Nc2ccc(Sc3nc4ccccc4s3)cc2)ccc1Cl` [Example 12, 1-[4-(2-Benzothiazolylthio)phenyl]-3-(4-chloro-3-trifluoromethylphenyl)thiourea], the figure is 5.41. In the case of `FC(F)(F)c1cc(NC(=S)Nc2ccc(Sc3nc4ccccc4[nH]3)cc2)ccc1Cl` [Example 10, 1-[4-(2-Benzimidazolylthio)phenyl]-3-(4-chloro-3-trifluoromethylphenyl)thiourea] it was 5.15; in that of `FC(F)(F)c1cc(NC(=S)Nc2ccc(Sc3cc(-c4ccccc4)c4ccccc4n3)cc2)ccc1Cl` [Example 4, 1-[4-(4-Phenyl-2-quinolylthio)phenyl]-3-(4-chloro-3-trifluoromethylphenyl)thiourea], under 4.70; in that of `FC(F)(F)c1cc(NC(=S)Nc2ccc(Sc3ccccn3)cc2)ccc1Cl` [Example 21], 5.08.

Take `FC(F)(F)c1cc(NC(=S)Nc2ccc(Nc3ccc4ccccc4n3)cc2)ccc1Cl` [Example 16, 1-[4-(2-quinolylamino)phenyl]-3-(4-chloro-3-trifluoromethylphenyl)thiourea]: the pIC50 is 4.93.
